Measurements taken from US20250339436A1, “CRYSTALLINE FORMS OF MRTX1133” (MIRATI THERAPEUTICS, INC., priority 2024, published 2025).
Entries after “also recorded” stand apart in the source; their conditions may differ. Marks after values point to notes of the source that are not given here. Values belong to the molecule of their own block, whether it stands above or below them.

Key:
Type in all cases: physicochemical
[1] = Accelerated stability study of MRTX1133 amorphous form vs crystalline Forms VIII and IX; settings: for stability under the conditions tested (conclusion): 25° C./60% RH and 40° C./75% RH; for trend of impurity values and assay results: all tested storage conditions
Experimental: Chemical stability and water content studies were conducted on amorphous MRTX1133 and MRTX1133 Forms VIII and IX according to well-known methods summarized below.
The stability studies of the amorphous form were done as follows.
The required amount was placed in a clear Class A glass bottle, 24 mL, with closed-top cap, sealed in opaque resealable Zipper bag. Per each storage condition there was one bottle, and the sampling was performed from the same bottle. Each bottle was labeled with protocol number, compound ID, lot number and storage condition.
The experimental conditions for stability testing of Forms VIII and IX were similar. However, the samples were placed in double LDPE bags filled with nitrogen protection, then placed into a heat-sealed foil bag, and into an HDPE container containing desiccant packs.

[2] = Bulk stability studies of MRTX1133 Forms II, VI, VIII and IX (solid state, 1-2 weeks); settings: for Initial Purity by UPLC: before storage
Experimental: Stability studies of all four forms were conducted according to well-known methods. The results are summarized below in Tables 4-11.

[3] = Thermogravimetric analysis (TGA)
Experimental: Thermogravimetric Analysis (TGA)
Instrument: Discovery 5500
Parameters: Nitrogen Flow balance 10 mL/min; sample 25 mL/min; start temperature: ambient condition (below 35° C.); final temperature: 300° C.; heating rate: 10° C./min; sample mass ˜2-10 mg. […]

[4] = Dynamic vapor sorption (DVS); settings: 25° C./95% RH
Experimental: Dynamic Vapor Sorption (DVS)
Instrument: Intrinsic, Advantage or Adventure;
Total gas flow: 200 sccm; oven temperature: 25° C., solvent: water; method: • Cycle: 40-0-95-0-40% RH • Stage Step: 10% • Equilibrium: 0.002 dm/dt (%/min) Minimum dm/dt stability duration: 60 min • Maximum dm/dt stage time: 360 min

[5] = 40° C./75% RH, 2M, by HPLC, listed as amorphous
[6] = 40° C./75% RH, 3M, by HPLC, listed as amorphous
[7] = 25° C./60% RH, open container, 1 week
[8] = 25° C./60% RH, open container, 2 weeks
[9] = 25° C./92.5% RH, open container, 1 week
[10] = 25° C./92.5% RH, open container, 2 weeks
[11] = 40° C./75% RH, open container, 1 week
[12] = 40° C./75% RH, open container, 2 weeks
[13] = 60° C., tight container, 1 week
[14] = 60° C., tight container, 2 weeks

SMILES: C#Cc1c(F)ccc2cc(O)cc(-c3ncc4c(N5CC6CCC(C5)N6)nc(OC[C@@]56CCCN5C[C@H](F)C6)nc4c3F)c12 [Amorphous]
- stability under the conditions tested (conclusion) [1]: not stable
- Moisture ([1]; 25° C./60% RH, 1M): 3.4 % w/w
- Assay ([1]; 25° C./60% RH, 1M, by HPLC): 89.5 w/w %
- Total Impurities ≥ 0.05% ([1]; 25° C./60% RH, 1M, by HPLC): 4.35 Area %
- Moisture ([1]; 25° C./60% RH, 2M): 4.2 % w/w
- Assay ([1]; 25° C./60% RH, 2M, by HPLC): 87.7 w/w %
- Total Impurities ≥ 0.05% ([1]; 25° C./60% RH, 2M, by HPLC): 4.74 Area %
- Moisture ([1]; 25° C./60% RH, 3M): 4.6 % w/w
- Assay ([1]; 25° C./60% RH, 3M, by HPLC): 86.1 w/w %
- Total Impurities ≥ 0.05% ([1]; 25° C./60% RH, 3M, by HPLC): 6.13 Area %
- Moisture ([1]; 40° C./75% RH, 1M): 2.7 % w/w
- Assay ([1]; 40° C./75% RH, 1M, by HPLC): 82.8 w/w %
- Total Impurities ≥ 0.05% ([1]; 40° C./75% RH, 1M, by HPLC): 8.03 Area %
- Moisture ([1]; 40° C./75% RH, 2M): 5.2 % w/w
- Assay ([1]; 40° C./75% RH, 2M, by HPLC): 70.1 w/w %
- Total Impurities ≥ 0.05% ([1]; 40° C./75% RH, 2M, by HPLC): 13.21 Area %
- Assay [1, 5]: 70 w/w %
- Total Impurities ≥ 0.05% [1, 5]: 13.2 Area %
- Moisture ([1]; 40° C./75% RH, 3M): 5.8 % w/w
- Assay ([1]; 40° C./75% RH, 3M, by HPLC): 61.3 w/w %
- Total Impurities ≥ 0.05% ([1]; 40° C./75% RH, 3M, by HPLC): 17.75 Area %
- Assay [1, 6]: 61 w/w %
- Total Impurities ≥ 0.05% [1, 6]: 17.8 Area %
- Moisture ([1]; T(0)): 2.9 % w/w
- Total Impurities ≥ 0.05% ([1]; T(0), by HPLC): 2.24 Area %
- Total Impurities ≥ 0.05% ([1]; T(0), by HPLC, listed as amorphous): 2.2 Area %
- Assay ([1]; T(0), by Q-NMR): 94.2^b w/w %
- Assay ([1]; T(0), by Q-NMR, listed as amorphous): 94 w/w %
- trend of impurity values and assay results [1]: substantial increases in impurity values and corresponding decreases in assay results

- stability under the conditions tested (conclusion) [1]: much more stable; also recorded: stable
- Moisture ([1]; 25° C./60% RH, 1M): 0.56 % w/w
- Assay ([1]; 25° C./60% RH, 1M, by HPLC): 98.0 w/w %
- Total Impurities ≥ 0.05% ([1]; 25° C./60% RH, 1M, by HPLC): 1.5 Area %
- Moisture ([1]; 25° C./60% RH, 2M): 0.65 % w/w
- Assay ([1]; 25° C./60% RH, 2M, by HPLC): 97.6 w/w %
- Total Impurities ≥ 0.05% ([1]; 25° C./60% RH, 2M, by HPLC): 1.4 Area %
- Moisture ([1]; 25° C./60% RH, 3M): 0.70 % w/w
- Assay ([1]; 25° C./60% RH, 3M, by HPLC): 98.2 w/w %
- Total Impurities ≥ 0.05% ([1]; 25° C./60% RH, 3M, by HPLC): 1.7 Area %
- Moisture ([1]; 25° C./60% RH, 6M): 0.66 % w/w
- Assay ([1]; 25° C./60% RH, 6M, by HPLC): 98.5 w/w %
- Total Impurities ≥ 0.05% ([1]; 25° C./60% RH, 6M, by HPLC): 1.7 Area %
- moisture content trend ([1]; 40° C./75% RH): relatively stable
- Moisture ([1]; 40° C./75% RH, 1M): 0.56 % w/w
- Assay ([1]; 40° C./75% RH, 1M, by HPLC): 97.6 w/w %
- Total Impurities ≥ 0.05% ([1]; 40° C./75% RH, 1M, by HPLC): 1.8 Area %
- Moisture ([1]; 40° C./75% RH, 2M): 0.63 % w/w
- Assay ([1]; 40° C./75% RH, 2M, by HPLC): 97.3 w/w %
- Total Impurities ≥ 0.05% ([1]; 40° C./75% RH, 2M, by HPLC): 1.8 Area %
- Moisture ([1]; 40° C./75% RH, 3M): 0.66 % w/w
- Assay ([1]; 40° C./75% RH, 3M, by HPLC): 96.5 w/w %
- Total Impurities ≥ 0.05% ([1]; 40° C./75% RH, 3M, by HPLC): 2.0 Area %
- Moisture ([1]; 40° C./75% RH, 6M): 0.70 % w/w
- Assay ([1]; 40° C./75% RH, 6M, by HPLC): 96.9 w/w %
- Total Impurities ≥ 0.05% ([1]; 40° C./75% RH, 6M, by HPLC): 2.3 Area %
- Moisture ([1]; T(0)): 0.94 % w/w
- Assay ([1]; T(0), by HPLC): 96.2 w/w %
- Total Impurities ≥ 0.05% ([1]; T(0), by HPLC): 1.2 Area %
- Bulk (UPLC) purity [2, 7]: 98.0%
- Bulk (UPLC) purity [2, 8]: 98.0%
- Bulk (XRPD) form [2, 8]: No form change
- Bulk color [2, 8]: no change of color
- Bulk (UPLC) purity [2, 9]: 97.9%
- Bulk (UPLC) purity [2, 10]: 98.1%
- Bulk (XRPD) form [2, 10]: No form change
- Bulk color [2, 10]: no change of color
- Bulk (UPLC) purity [2, 11]: 97.8%
- Bulk (XRPD) form [2, 11]: No form change
- Bulk (UPLC) purity [2, 12]: 98.0%
- Bulk (XRPD) form [2, 12]: No form change
- Bulk color [2, 12]: no change of color
- Bulk (UPLC) purity [2, 13]: 97.9%
- Bulk (UPLC) purity [2, 14]: 98.1%
- Bulk (XRPD) form [2, 14]: No form change
- Bulk color [2, 14]: no change of color
- Initial Purity by UPLC [2]: 97.9%
- onset of degradation as estimated by TGA [3]: about 190 °C
- weight loss observed by TGA ([3]; before 190° C. (onset of degradation)): about 0.5%
- weight loss observed by TGA ([3]; before 190° C. (onset of degradation), listed as MRTX1133 Form IX): 0.5% weight loss observed
SMILES: C#Cc1c(F)ccc2cc(O)cc(-c3ncc4c(N5C[C@H]6CC[C@@H](C5)N6)nc(OC[C@@]56CCCN5C[C@H](F)C6)nc4c3F)c12 [Form IX, 4-(4-((1R,5S)-3,8-diazabicyclo[3.2.1]octan-3-yl)-8-fluoro-2-(((2R,7aS)-2-fluorohexahydro-1H-pyrrolizin-7a-yl)methoxy)pyrido[4,3-d]pyrimidin-7-yl)-5-ethynyl-6-fluoronaphthalen-2-ol]
- trend of impurity values and assay results [1]: no increases in impurity values and no decreases in assay results

- stability under the conditions tested (conclusion) [1]: much more stable; also recorded: stable
- Moisture ([1]; 25° C./60% RH, 1M): 0.64 % w/w
- Assay ([1]; 25° C./60% RH, 1M, by HPLC): 96.8 w/w %
- Total Impurities ≥ 0.05% ([1]; 25° C./60% RH, 1M, by HPLC): 2.1 Area %
- Moisture ([1]; 25° C./60% RH, 3M): 0.49 % w/w
- Assay ([1]; 25° C./60% RH, 3M, by HPLC): 97.3 w/w %
- Total Impurities ≥ 0.05% ([1]; 25° C./60% RH, 3M, by HPLC): 2.1 Area %
- Moisture ([1]; 25° C./60% RH, 6M): 0.53 % w/w
- Assay ([1]; 25° C./60% RH, 6M, by HPLC): 96.4 w/w %
- Total Impurities ≥ 0.05% ([1]; 25° C./60% RH, 6M, by HPLC): 1.9 Area %
- moisture content trend ([1]; 40° C./75% RH): relatively stable
- Moisture ([1]; 40° C./75% RH, 1M): 0.62 % w/w
- Assay ([1]; 40° C./75% RH, 1M, by HPLC): 96.6 w/w %
- Total Impurities ≥ 0.05% ([1]; 40° C./75% RH, 1M, by HPLC): 2.2 Area %
- Moisture ([1]; 40° C./75% RH, 3M): 0.54 % w/w
- Assay ([1]; 40° C./75% RH, 3M, by HPLC): 97.4 w/w %
- Total Impurities ≥ 0.05% ([1]; 40° C./75% RH, 3M, by HPLC): 2.3 Area %
- Moisture ([1]; 40° C./75% RH, 6M): 0.78 % w/w
- Assay ([1]; 40° C./75% RH, 6M, by HPLC): 96.1 w/w %
- Total Impurities ≥ 0.05% ([1]; 40° C./75% RH, 6M, by HPLC): 2.2 Area %
- Moisture ([1]; T(0)): 0.55 % w/w
- Assay ([1]; T(0), by HPLC): 96.9 w/w %
- Total Impurities ≥ 0.05% ([1]; T(0), by HPLC): 2.5 Area %
- water uptake by DVS [4]: about 1.3%
- water uptake by DVS ([4]; listed as MRTX1133 Form VIII): 1.3% water uptake at
- Bulk (UPLC) purity [2, 7]: 98.0%
- Bulk (UPLC) purity [2, 8]: 98.0%
- Bulk (XRPD) form [2, 8]: No form change
- Bulk color [2, 8]: no change of color
- Bulk (UPLC) purity [2, 9]: 98.1%
- Bulk (UPLC) purity [2, 10]: 98.0%
- Bulk (XRPD) form [2, 10]: No form change
- Bulk color [2, 10]: no change of color
- Bulk (UPLC) purity [2, 11]: 98.0%
- Bulk (XRPD) form [2, 11]: No form change
- Bulk (UPLC) purity [2, 12]: 98.1%
- Bulk (XRPD) form [2, 12]: No form change
- Bulk color [2, 12]: no change of color
- Bulk (UPLC) purity [2, 13]: 98.1%
- Bulk (UPLC) purity [2, 14]: 98.1%
- Bulk (XRPD) form [2, 14]: No form change
- Bulk color [2, 14]: no change of color
- Initial Purity by UPLC [2]: 98.0%
- onset of degradation as estimated by TGA [3]: about 180 °C
- weight loss observed by TGA ([3]; before 180° C. (onset of degradation)): about 0.7%
- weight loss observed by TGA ([3]; before 180° C. (onset of degradation), listed as MRTX1133 Form VIII): 0.7% weight loss observed
SMILES: C#Cc1c(F)ccc2cc(O)cc(-c3ncc4c(N5C[C@H]6CC[C@@H](C5)N6)nc(OC[C@@]56CCCN5C[C@H](F)C6)nc4c3F)c12 [Form VIII, 4-(4-((1R,5S)-3,8-diazabicyclo[3.2.1]octan-3-yl)-8-fluoro-2-(((2R,7aS)-2-fluorohexahydro-1H-pyrrolizin-7a-yl)methoxy)pyrido[4,3-d]pyrimidin-7-yl)-5-ethynyl-6-fluoronaphthalen-2-ol]
- trend of impurity values and assay results [1]: no increases in impurity values and no decreases in assay results
